{"source": "patent US10766914B2", "about": "“DNA alkylating agents” (OBI PHARMA, INC., priority 2015, dated 2020)", "key": {"[1]": {"test": "Example 4-G body weight change, H460 xenograft study", "assay_type": "in vivo, female nude mice (nu/nu)", "settings": "ip, Q7D × 3", "procedure": "(§1) Cells were mixed with Matrigel (50% with exception for 30% in the H460) and 0.2 ml per mouse were subcutaneously implanted to the flank area of the animals. When tumor size reached 100-150 250 mm3, mice were randomized into experimental or vehicle groups with 10 mice/group and treatment was started (Day 1). The tested compounds were formulated in 5% DMSO in D5W. The regimens employed in the examples include IP, QD×5/wk (5 days on, 2 days off) as one cycle, for a total of 2 cycles; IP, once; IP, weekly for total 3 weeks; and IV, weekly for 3 weeks. Tumor growth and body weight were measured twice a week. Tumor volume was calculated as (length×width2)/2. Drug efficacy was assessed as Tumor Growth Inhibition (TGI) and Tumor Growth Delay (TGD). TGI was defined as (1−ΔT/ΔC)×100, where ΔT/ΔC presented the ratio of the change in mean (or median, if variation within the group was relatively large) tumor volume of the treated group and of the control group. TGD was calculated as the extra days for the treated tumor to reach 500 mm3 or 1000 mm3 as compared to the control group. Animals were culled when individual tumor size reached over 2000 mm3 or mean tumor volume exceeded 1000 mm3 in the group. Data are expressed as the mean±SEM. One-way analysis of variance with Dunnett post comparison test (GraphPad Prism 4) or two-tailed student's t-test were used for analysis. A P level <0.05 was considered statistically significant.\n(§2) The compounds TH-3040 and TH-3045 were tested in a H460 model. The compounds were dosed as follows. A dose-dependent TH-3040 or TH-3045 was given IP weekly for 3 weeks, from 5 to 45 mg/kg starting at 100 mm^3 tumors on day 1 (10 animals per group average tumor volume). The antitumor effects and the safety of administration are graphically illustrated below."}, "H460 cells": {"system": "H460 cells", "test": "Proliferation assay in H460 cells (2 hr exposure, AlamarBlue)", "assay_type": "cell-based, human", "settings": "Homo sapiens, NCI-H460, 2 hrs exposure, wash, 70 hrs growth, read-out: IC 50 in proliferation assay in H460 cells", "method_in_brief": "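H460 cells seeded at 4×10^3/well, grown 24 h, then exposed to compound for 2 h at 37 °C. Drug was washed off and cells were regrown 70 h in fresh medium. Viable cells were read by AlamarBlue, and IC50 was taken as the concentration giving 50% growth inhibition.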"}, "H460 NSCLC xenograft [2]": {"system": "H460 NSCLC xenograft", "test": "Example 4-G antitumor efficacy, ectopic H460 NSCLC xenograft model", "assay_type": "in vivo, female nude mice (nu/nu)", "settings": "ip, Q7D × 3", "text": "(§3) Specific pathogen-free homozygous female nude mice (nu/nu, Charles River Laboratories) were used. Mice were given food and water ad libitum and housed in microisolator cages. Four to six week old animals were identified by microchips (Locus Technology, Manchester, Md., USA) at the time of the experiments. All animal studies were approved by the Institutional Animal Care and Use Committee at Threshold Pharmaceuticals, Inc.\n(§4) All cell lines were from the American Type Culture Collection (ATCC, Rockville, Md., USA).\nas §1, §2"}, "[3]": {"test": "Example 4-I body weight change, H460 xenograft study", "assay_type": "in vivo, female nude mice (nu/nu)", "settings": "10 mg/kg, iv, Q7D × 3", "procedure": "as §1\n(§5) The compound TH-2870 was tested in a H460 model. The compound was dosed follows. 1.5, 5 or 15 mg/kg, IV, weekly for 3 weeks at 250 mm^3 tumors on day 1 (10 animals per group average tumor volume), comparing with docetaxel. The antitumor effects and the safety of administration are graphically illustrated below."}, "H460 NSCLC xenograft [4]": {"system": "H460 NSCLC xenograft", "test": "Example 4-I antitumor efficacy, ectopic H460 NSCLC xenograft model", "assay_type": "in vivo, female nude mice (nu/nu)", "settings": "10 mg/kg, iv, Q7D × 3", "text": "as §3, §4, §1, §5"}, "[5]": {"test": "Example 4-A body weight change, H460 xenograft study", "assay_type": "in vivo, female nude mice (nu/nu)", "settings": "60 mg/kg ip Q3D × 5", "procedure": "as §1, with “A P level <0.05 was considered statistically significant.” left out"}, "[6]": {"system": "H460 non-small cell lung cancer xenograft tumor", "test": "Example 4-A antitumor efficacy, ectopic H460 NSCLC xenograft model", "assay_type": "in vivo, female nude mice (nu/nu)", "settings": "60 mg/kg ip Q3D × 5; H460", "text": "as §3, §4, §1\nCompounds provided herein were tested in vivo human tumor xenograft models and compared to standard chemotherapeutic agents such as gemcitabine, nab-paclitaxel. […] The compound was dosed as follows: daily IP dosing: 5 doses then 2 days off then 5 more doses starting at 100 mm^3 tumors on day 1 (10 animals per group median tumor volume). It is contemplated that in some embodiments, the compounds provided herein are activated by human and not by mouse enzymes. The antitumor effects and the safety of administration are graphically illustrated in FIGS. 3-20 below."}}}
{"compound": "C[C@@H](OP(=O)(N1CC1)N1CC1)c1ccc([N+](=O)[O-])c(Oc2ccc(-c3ccccc3)cc2)c1", "note": "[Compound 3045]", "values": [{"measurement": "Max BW loss", "setting": "[1]; 5 mpk", "result": 0.0, "unit": "%"}, {"measurement": "Max BW loss", "setting": "[1]; 15 mpk", "result": 2.8, "unit": "%"}, {"measurement": "Max BW loss", "setting": "[1]; 45 mpk", "result": 2.4, "unit": "%"}, {"measurement": "IC50", "setting": "H460 cells", "result": 4, "unit": "nM"}, {"measurement": "TGD 500", "setting": "H460 NSCLC xenograft [2]; 5 mpk", "result": 48, "unit": "days"}, {"measurement": "TGI", "setting": "H460 NSCLC xenograft [2]; 5 mpk", "result": 104.0, "unit": "%"}, {"measurement": "TGD 500", "setting": "H460 NSCLC xenograft [2]; 15 mpk", "result": 70, "unit": "days"}, {"measurement": "TGI", "setting": "H460 NSCLC xenograft [2]; 15 mpk", "result": 104.8, "unit": "%"}, {"measurement": "TGD 500", "setting": "H460 NSCLC xenograft [2]; 45 mpk", "result": 86, "unit": "days"}, {"measurement": "TGI", "setting": "H460 NSCLC xenograft [2]; 45 mpk", "result": 106.3, "unit": "%"}]}
{"compound": "CC(=O)O[C@@]12CO[C@@H]1C[C@H](O)[C@@]1(C)C(=O)[C@H](O)C3=C(C)[C@@H](OC(=O)[C@H](O)[C@@H](NC(=O)OC(C)(C)C)c4ccccc4)C[C@@](O)([C@@H](OC(=O)c4ccccc4)[C@H]21)C3(C)C", "note": "[Doectaxel, docetaxel, reference compound]", "values": [{"measurement": "Max. BW loss %", "setting": "[3]", "result": 12.4, "unit": "%"}, {"measurement": "TGD500, Days (vs. vehicle)", "setting": "H460 NSCLC xenograft [4]; H460", "result": 6, "unit": "days"}, {"measurement": "TGD1000, Days (vs. vehicle)", "setting": "H460 NSCLC xenograft [4]; H460", "result": 9, "unit": "days"}, {"measurement": "TGI", "setting": "H460 NSCLC xenograft [4]; H460, 250 mm3 tumors on day 1", "result": 51.3, "unit": "%"}]}
{"compound": "Nc1ccn([C@@H]2O[C@H](CO)[C@@H](O)C2(F)F)c(=O)n1", "note": "[GEM, gemcitabine, reference compound]", "values": [{"measurement": "Max. BW loss %", "setting": "[5]", "result": 4.9, "unit": "%"}, {"measurement": "TGD 500", "setting": "[6]", "result": 7, "unit": "days"}, {"measurement": "TGD 1000", "setting": "[6]", "result": 7, "unit": "days"}, {"measurement": "TGI", "setting": "[6]", "result": 42.7, "unit": "%"}]}
